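Test compounds were applied to cells in 96-well plates for 48 hours at 5 doses. Here, GI50 denotes the concentration required for 50% inhibition of growth. TGI marks complete inhibition of growth.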
How the values were obtained:
Assay in all cases: NCI tumour cell line growth inhibition, 48 h
[1] = tested on: 786-0 renal
[2] = tested on: A498 renal
[3] = tested on: A549 NSCLC
[4] = tested on: ACHN renal
[5] = tested on: BT-549 breast
[6] = tested on: CAKI-1 renal
[7] = tested on: CCRF-CEM leukemia
[8] = tested on: COLO 205 colon
[9] = tested on: DU-145 prostate
[10] = tested on: EKVX NSCLC
[11] = tested on: HCC-2998 colon
[12] = tested on: HCT-116 colon
[13] = tested on: HCT-15 colon
[14] = tested on: HL-60(TB) leukemia
[15] = tested on: HOP-62 NSCLC
[16] = tested on: HOP-92 NSCLC
[17] = tested on: HS 578T breast
[18] = tested on: HT29 colon
[19] = tested on: IGROV1 ovarian
[20] = tested on: K-562 leukemia
[21] = tested on: KM12 colon
[22] = tested on: LOX IMVI melanoma
[23] = tested on: M14 melanoma
[24] = tested on: MALME-3M melanoma
[25] = tested on: MCF7 breast
[26] = tested on: MDA-MB-231 breast
[27] = tested on: MDA-MB-435
[28] = tested on: MOLT-4 leukemia
[29] = tested on: NCI-H226 lung
[30] = tested on: NCI-H23 lung
[31] = tested on: NCI-H460 lung
[32] = tested on: NCI-H522 lung
[33] = tested on: NCI/ADR-RES ovarian
[34] = tested on: OVCAR-3 ovarian
[35] = tested on: OVCAR-4 ovarian
[36] = tested on: OVCAR-5 ovarian
[37] = tested on: OVCAR-8 ovarian
[38] = tested on: PC-3 prostate
[39] = tested on: RPMI-8226 leukemia
[40] = tested on: RXF 393 renal
[41] = tested on: SF-268 CNS
[42] = tested on: SF-295 CNS
[43] = tested on: SF-539 CNS
[44] = tested on: SK-MEL-2 melanoma
[45] = tested on: SK-MEL-28 melanoma
[46] = tested on: SK-MEL-5 melanoma
[47] = tested on: SK-OV-3 ovarian
[48] = tested on: SN12C renal
[49] = tested on: SNB-19 CNS
[50] = tested on: SNB-75 CNS
[51] = tested on: SR leukemia
[52] = tested on: SW-620 colon
[53] = tested on: T-47D breast
[54] = tested on: TK-10 renal
[55] = tested on: U251 CNS
[56] = tested on: UACC-257 melanoma
[57] = tested on: UACC-62 melanoma
[58] = tested on: UO-31 renal

SMILES: Nc1cccc(CCN2CCN(CCCc3ccccc3)CC2)c1
- TGI [1]: 37.4 µM
- TGI [2]: > 100 µM
- TGI [3]: > 100 µM
- TGI [4]: > 100 µM
- TGI [5]: > 100 µM
- TGI [6]: > 100 µM
- TGI [7]: > 100 µM
- TGI [8]: 34.8 µM
- TGI [9]: > 100 µM
- TGI [10]: > 100 µM
- TGI [11]: 28.2 µM
- TGI [12]: 36.7 µM
- TGI [13]: 38.2 µM
- TGI [14]: > 100 µM
- TGI [15]: > 100 µM
- TGI [16]: 53.8 µM
- TGI [17]: > 100 µM
- TGI [18]: 46.5 µM
- TGI [19]: > 100 µM
- TGI [20]: > 100 µM
- TGI [21]: 81.5 µM
- TGI [22]: 33.1 µM
- TGI [23]: 32.3 µM
- TGI [24]: 38 µM
- TGI [25]: 36.4 µM
- TGI [26]: > 100 µM
- TGI [27]: 36.9 µM
- TGI [28]: > 100 µM
- TGI [29]: > 100 µM
- TGI [30]: > 100 µM
- TGI [31]: 71.4 µM
- TGI [32]: 30.1 µM
- TGI [33]: > 100 µM
- TGI [34]: 41.2 µM
- TGI [35]: > 100 µM
- TGI [36]: > 100 µM
- TGI [37]: 63.2 µM
- TGI [38]: > 100 µM
- TGI [39]: > 100 µM
- TGI [40]: 52.2 µM
- TGI [41]: > 100 µM
- TGI [42]: 70 µM
- TGI [43]: 40.6 µM
- TGI [44]: > 100 µM
- TGI [45]: 88.4 µM
- TGI [46]: 34.3 µM
- TGI [47]: > 100 µM
- TGI [48]: > 100 µM
- TGI [49]: > 100 µM
- TGI [50]: > 100 µM
- TGI [51]: 65.9 µM
- TGI [52]: > 100 µM
- TGI [53]: 52.6 µM
- TGI [54]: > 100 µM
- TGI [55]: > 100 µM
- TGI [56]: 65.3 µM
- TGI [57]: 52.7 µM
- TGI [58]: > 100 µM

SMILES: CCCc1cn2c(/C=N/N=C(N)N)c(-c3c(OC)ccc(OC)c3[N+](=O)[O-])nc2s1
- TGI [1]: 28.1 µM
- TGI [2]: 44.6 µM
- TGI [3]: 51.3 µM
- TGI [4]: 35.6 µM
- TGI [5]: 35.6 µM
- TGI [6]: 30.6 µM
- TGI [7]: 8.43 µM
- TGI [8]: 6.42 µM
- TGI [9]: 35.6 µM
- TGI [10]: 44.8 µM
- TGI [11]: 4.59 µM
- TGI [12]: 22.2 µM
- TGI [13]: 37 µM
- TGI [14]: 27.6 µM
- TGI [15]: 31.1 µM
- TGI [16]: 47 µM
- TGI [17]: 41.9 µM
- TGI [18]: > 38.5 µM
- TGI [19]: 34.8 µM
- TGI [20]: 11.5 µM
- TGI [21]: 11.6 µM
- TGI [22]: 9.13 µM
- TGI [23]: 21.3 µM
- TGI [24]: 30 µM
- TGI [25]: 20.8 µM
- TGI [26]: 16.2 µM
- TGI [27]: 19.9 µM
- TGI [28]: 4.19 µM
- TGI [29]: 38.3 µM
- TGI [30]: 26.1 µM
- TGI [31]: 41.6 µM
- TGI [32]: 34.2 µM
- TGI [33]: 64.6 µM
- TGI [34]: 18.2 µM
- TGI [35]: 66.2 µM
- TGI [36]: 34.5 µM
- TGI [37]: 47.3 µM
- TGI [38]: 26.5 µM
- TGI [39]: 8.7 µM
- TGI [40]: 41.2 µM
- TGI [41]: 47.2 µM
- TGI [42]: 35.7 µM
- TGI [43]: 36.9 µM
- TGI [44]: 46.5 µM
- TGI [45]: 19.4 µM
- TGI [46]: 32.3 µM
- TGI [47]: 43.3 µM
- TGI [48]: 31.7 µM
- TGI [49]: 49.9 µM
- TGI [50]: > 59.1 µM
- TGI [51]: 4.34 µM
- TGI [52]: 32.9 µM
- TGI [53]: 24.3 µM
- TGI [54]: 41 µM
- TGI [55]: 18.7 µM
- TGI [56]: 28.4 µM
- TGI [57]: 25.4 µM
- TGI [58]: 45 µM

SMILES: CSc1nc(N)cc(Oc2ccc(-c3nc(Nc4cccc(C(F)(F)F)c4)n[nH]3)cc2)n1
- GI50 [1]: 1280 nM
- TGI [1]: 4.86 µM
- GI50 [2]: 486 nM
- TGI [2]: 5.25 µM
- GI50 [3]: 737 nM
- TGI [3]: 9.51 µM
- GI50 [4]: 873 nM
- TGI [4]: 9.64 µM
- GI50 [5]: 721 nM
- TGI [5]: 6.82 µM
- GI50 [6]: 640 nM
- TGI [6]: 3.67 µM
- GI50 [7]: 773 nM
- TGI [7]: > 43.5 µM
- GI50 [8]: 897 nM
- TGI [8]: 4.05 µM
- GI50 [9]: 1280 nM
- TGI [9]: 9.53 µM
- GI50 [10]: 1660 nM
- TGI [10]: 10.1 µM
- GI50 [11]: 1330 nM
- TGI [11]: 4.96 µM
- GI50 [12]: 456 nM
- TGI [12]: 2.15 µM
- GI50 [13]: 531 nM
- TGI [13]: 8.07 µM
- GI50 [14]: 2360 nM
- TGI [14]: 9.23 µM
- GI50 [15]: 593 nM
- TGI [15]: 4.99 µM
- GI50 [16]: 1300 nM
- TGI [16]: 6 µM
- GI50 [17]: 642 nM
- TGI [17]: 9.29 µM
- GI50 [18]: 432 nM
- TGI [18]: 2.71 µM
- GI50 [19]: 1880 nM
- TGI [19]: 18.3 µM
- GI50 [20]: 522 nM
- TGI [20]: > 35.3 µM
- GI50 [21]: 498 nM
- TGI [21]: 4.46 µM
- GI50 [22]: 520 nM
- TGI [22]: 2.05 µM
- GI50 [23]: 483 nM
- TGI [23]: 3.85 µM
- GI50 [24]: 1190 nM
- TGI [24]: 8.42 µM
- GI50 [25]: 357 nM
- TGI [25]: 5.02 µM
- GI50 [26]: 1790 nM
- TGI [26]: 8.63 µM
- GI50 [27]: 255 nM
- TGI [27]: 0.744 µM
- GI50 [28]: 1250 nM
- TGI [28]: > 38.4 µM
- GI50 [29]: 1810 nM
- TGI [29]: 7.69 µM
- GI50 [30]: 893 nM
- TGI [30]: 10.2 µM
- GI50 [31]: 440 nM
- TGI [31]: 3.03 µM
- GI50 [32]: 651 nM
- TGI [32]: 4.06 µM
- GI50 [33]: 1110 nM
- TGI [33]: 7.45 µM
- GI50 [34]: 336 nM
- TGI [34]: 1.22 µM
- GI50 [35]: 2060 nM
- TGI [35]: 13.1 µM
- GI50 [36]: 2380 nM
- TGI [36]: 14.6 µM
- GI50 [37]: 1360 nM
- TGI [37]: 10.3 µM
- GI50 [38]: 1130 nM
- TGI [38]: 9.41 µM
- GI50 [39]: 1900 nM
- TGI [39]: 12.6 µM
- GI50 [40]: 504 nM
- TGI [40]: 2.25 µM
- GI50 [41]: 894 nM
- TGI [41]: 12.5 µM
- GI50 [42]: 784 nM
- TGI [42]: 6.24 µM
- GI50 [43]: 621 nM
- TGI [43]: 4.19 µM
- GI50 [44]: 789 nM
- TGI [44]: 6.06 µM
- GI50 [45]: 1460 nM
- TGI [45]: 10.4 µM
- GI50 [46]: 416 nM
- TGI [46]: 1.57 µM
- GI50 [47]: 516 nM
- TGI [47]: 3.93 µM
- GI50 [48]: 1150 nM
- TGI [48]: 12.3 µM
- GI50 [49]: 1220 nM
- TGI [49]: 14.9 µM
- GI50 [50]: 371 nM
- TGI [50]: 4.46 µM
- GI50 [51]: 354 nM
- TGI [51]: > 100 µM
- GI50 [52]: 478 nM
- TGI [52]: 13.6 µM
- GI50 [53]: 810 nM
- TGI [53]: 5.11 µM
- GI50 [54]: 1540 nM
- TGI [54]: 7.73 µM
- GI50 [55]: 548 nM
- TGI [55]: 4.73 µM
- GI50 [56]: 776 nM
- TGI [56]: 6.34 µM
- GI50 [57]: 474 nM
- TGI [57]: 4.72 µM
- GI50 [58]: 1600 nM
- TGI [58]: 11.3 µM

Reference: PubChem BioAssay (NCI)
